Measured values from US10258603B2 (priority 2014, dated 2019).

Biological target: T1, TAF1-BD2 (Homo sapiens, UniProt P21675)
T1 sequence (P21675 1525-1656): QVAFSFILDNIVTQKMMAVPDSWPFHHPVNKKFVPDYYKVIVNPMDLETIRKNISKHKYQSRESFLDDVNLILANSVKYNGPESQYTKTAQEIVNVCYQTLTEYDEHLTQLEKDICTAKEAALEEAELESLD
Assay: TAF1-BD2 TR-FRET Binding Assay
Conditions: Assay: TAF-1
Experimental: Specifically, in a 384 well ProxiPlate TAF1-BD2 (6 nM final) was combined with biotin-ligand (50 nM final) in 50 mM HEPES (pH 7.5), 50 mM NaCl, 1 mM TCEP, 0.01% (w/v) BSA, and 0.008% (w/v) Brij-35 either in the presence of DMSO (final 0.2% DMSO) or compound dilution series in DMSO. After 10 minutes incubation at room temperature, a mixture Eu-W1024 Anti-6×His antibody (Perkin Elmer AD0110) and SureLight™ Allophycocyanin-Streptavidin (APC-SA, Perkin Elmer CR130-100) were added to a final concentrations of 0.2 nMolar antibody and 25 nMolar APC-SA, respectively. After twenty minutes of equilibration, the plates were read on an Envision instrument and IC50s calculated using a four parameter non-linear curve fit.

SMILES	IC50
CCN1CCC(CN(C)C(=O)c2cn(C)c(=O)c3[nH]ccc23)C1 (stereo not shown) [Example 27, N-[(1-ethylpyrrolidin-3-yl)methyl]-N,6-dimethyl-7-oxo-1H-pyirolo[2,3-c]pyridine-4-carboxamide]	6900 nM
Cn1cc(C(=O)NCC(C)(C)N2CCOCC2)c2cc[nH]c2c1=O [Example 36, 6-methyl-N-(2-methyl-2-morpholino-propyl)-7-oxo-1H-pyrrolo [2,3-c]pyridine-4-carboxamide]	1700 nM
Cn1cc(C(=O)NC2CCN(c3ncccn3)CC2)c2cc[nH]c2c1=O [Example 44, 6-methyl-7-oxo-N-(1-pyrimidin-2-yl-4-piperidyl)-1H-pyrrolo[2,3-c]pyridine-4-carboxamide]	340 nM
Cn1cc(C(=O)N2CCC(c3cnccn3)CC2)c2cc[nH]c2c1=O [Example 51, 6-methyl-4-(4-pyrazin-2-ylpiperidine-1-carbonyl)-1H-pyrrolo[2,3-c]pyridin-7-one]	4400 nM
Cn1cc(C(=O)N2CCC(F)CC2)c2cc[nH]c2c1=O [Example 53, 4-(4-fluoropiperidine-1-carbonyl)-6-methyl-1H-pyrrolo[2,3-c]pyridin-7-one]	8200 nM
Cn1cc(C(=O)N2CCC(CCNS(C)(=O)=O)CC2)c2cc[nH]c2c1=O [Example 54, N-[2-[1-(6-methyl-7-oxo-1H-pyrrolo[2,3-c]pyridine-4-carbonyl)-4-piperidyl]ethyl]methanesulfonamide]	2900 nM
Cn1cc(C(=O)N2CCC(c3ccncn3)CC2)c2cc[nH]c2c1=O [Example 56, 6-methyl-4-(4-pyrimidin-4-ylpiperidine-1-carbonyl)-1H-pyrrolo[2,3-c]pyridin-7-one]	2500 nM
Cn1cc(C(=O)N2CCC(Cc3ccccn3)CC2)c2cc[nH]c2c1=O [Example 58, 6-methyl-4-[4-(2-pyridylmethyl)piperidine-1-carbonyl]-1H-pyrrolo[2,3-c]pyridin-7-one]	1500 nM
Cn1cc(C(=O)N2CCC(N3CCOCC3)CC2)c2cc[nH]c2c1=O [Example 63, 6-methyl-4-(4-morpholinopiperidine-1-carbonyl)-1H-pyrrolo[2,3-c]pyridin-7-one]	4700 nM
Cn1cc(C(=O)N2CCC(c3ccccc3)CC2)c2cc[nH]c2c1=O [Example 71, 6-methyl-4-(4-phenylpiperidine-1-carbonyl)-1H-pyrrolo[2,3-c]pyridin-7-one]	3000 nM
Cn1cc(C(=O)NCC2CCCC2)c2cc[nH]c2c1=O [Example 83, N-(cyclopentylmethyl)-6-methyl-7-oxo-1H-pyrrolo[2,3-c]pyridine-4-carboxamide]	670 nM
Cn1cc(C(=O)NCC2CN(C(=O)OC(C)(C)C)C2)c2cc[nH]c2c1=O [Example 130]	1200 nM
Cn1cc(C(=O)NCC2CCCN(C(=O)OC(C)(C)C)C2)c2cc[nH]c2c1=O (stereo not shown) [Example 135]	1300 nM
Cn1cc(C(=O)NC2CCN(c3ccncn3)CC2)c2cc[nH]c2c1=O [Example 148, 6-methyl-7-oxo-N-(1-pyrimidin-4-yl-4-piperidyl)-1H-pyrrolo[2,3-c]pyridine-4-carboxamide]	440 nM
Cc1ccnc(N2CCC(NC(=O)c3cn(C)c(=O)c4[nH]ccc34)CC2)n1 [Example 150, 6-methyl-N-[1-(4-methylpyrimidin-2-yl)-4-piperidyl]-7-oxo-1H-pyrrolo[2,3-c]pyridine-4-carboxamide]	360 nM
Cn1cc(C(=O)NC2CCN(c3cnccn3)CC2)c2cc[nH]c2c1=O [Example 151, 6-methyl-7-oxo-N-(1-pyrazin-2-yl-4-piperidyl)-1H-pyrrolo[2,3-c]pyridine-4-carboxamide]	550 nM
Cn1cc(C(=O)NC2CCN(c3ncc(C#N)cn3)CC2)c2cc[nH]c2c1=O [Example 152, N-[1-(5-cyanopyrimidin-2-yl)-4-piperidyl]-6-methyl-7-oxo-1H-pyrrolo[2,3-c]pyridine-4-carboxamide]	570 nM
Cn1cc(C(=O)NC2CCN(c3nccc(C(F)(F)F)n3)CC2)c2cc[nH]c2c1=O [Example 153, 6-methyl-7-oxo-N-[1-[4-(trifluoromethyl)pyrimidin-2-yl]-4-piperidyl]-1H-pyrrolo[2,3-c]pyridine-4-carboxamide]	490 nM
Cn1cc(C(=O)NC2CCN(c3ncc(F)cn3)CC2)c2cc[nH]c2c1=O [Example 154, N-[1-(5-fluoropyrimidin-2-yl)-4-piperidyl]-6-methyl-7-oxo-1H-pyrrolo[2,3-c]pyridine-4-carboxamide]	530 nM
Cn1cc(C(=O)NC2CCN(c3cccnn3)CC2)c2cc[nH]c2c1=O [Example 155, 6-methyl-7-oxo-N-(1-pyridazin-3-yl-4-piperidyl)-1H-pyrrolo[2,3-c]pyridine-4-carboxamide]	330 nM
Cn1cc(C(=O)NC2CCN(c3nccc(C#N)n3)CC2)c2cc[nH]c2c1=O [Example 156, N-[1-(4-cyanopyrimidin-2-yl)-4-piperidyl]-6-methyl-7-oxo-1H-pyrrolo[2,3-c]pyridine-4-carboxamide]	990 nM
C=CCn1cc(C(=O)N(C)C2CCN(c3cc(CCC)ncn3)CC2)c2cc[nH]c2c1=O [Example 166, 6-allyl-N-methyl-7-oxo-N-[1-(6-propylpyrimidin-4-yl)-4-piperidyl]-1H-pyrrolo[2,3-c]pyridine-4-carboxamide]	2100 nM
Cn1cc(C(=O)NC2CCN(c3ccccc3)CC2)c2cc[nH]c2c1=O [Example 171, 6-methyl-7-oxo-N-(1-phenyl-4-piperidyl)-1H-pyrrolo[2,3-c]pyridine-4-carboxamide]	260 nM
CC(C)c1ccc(N2CCC(N(C)C(=O)c3cn(C)c(=O)c4[nH]ccc34)CC2)cc1 [Example 180, N-[1-(4-isopropylphenyl)-4-piperidyl]-N,6-dimethyl-7-oxo-1H-pyrrolo[2,3-c]pyridine-4-carboxamide]	160 nM
CN(CC1CCN(Cc2ccc(Cl)cc2)CC1)C(=O)c1cn(C)c(=O)c2[nH]ccc12 [Example 200, N-[[1-[(4-chloropbenyl)methyl]-4-piperidyl]methyl]-N,6-dimethyl-7-oxo-1H-pyrrolo[2,3-c]pyridine-4-carboxamide]	8000 nM
CN1CCC(C)(NC(=O)c2cn(C)c(=O)c3[nH]ccc23)CC1 [Example 210, N-(1,4-dimethyl-4-piperidyl)-6-methyl-7-oxo-1H-pyrrolo[2,3-c]pyridine-4-carboxamide]	5300 nM
CC(C)N1CC2C(C1)C2NC(=O)c1cn(C)c(=O)c2[nH]ccc12 (stereo not shown) [Example 228]	3300 nM

The next lines start with the values.

IC50	SMILES
69 nM	CN(C)C1CCN(C(=O)c2cn(C)c(=O)c3[nH]ccc23)CC1 [Example 40, 4-[4-(dimethylamino)piperidine-1-carbonyl]-6-methyl-1H-pyrrolo[2,3-c]pyridin-7-one]
210 nM	Cn1cc(C(=O)NC2CCN(c3ccccn3)CC2)c2cc[nH]c2c1=O [Example 42, 6-methyl-7-oxo-N-[1-(2-pyridyl)-4-piperidyl]-1H-pyrrolo[2,3-c]pyridine-4-carboxamide]
720 nM	Cn1cc(C(=O)NC2CCN(C3CCCC3)CC2)c2cc[nH]c2c1=O [Example 43, N-(1-cyclopentyl-4-piperidyl)-6-methyl-7-oxo-1H-pyrrolo[2,3-c]pyridine-4-carboxamide]
2300 nM	Cn1cc(C(=O)N2CCC(C(C)(C)C)CC2)c2cc[nH]c2c1=O [Example 47, 4-(4-tert-butylpiperidine-1-carbonyl)-6-methyl-1H-pyrrolo[2,3-c]pyridin-7-one]
1500 nM	Cn1cc(C(=O)N2CCC(c3ccc(Cl)cc3)CC2)c2cc[nH]c2c1=O [Example 48, 4-[4-(4-chlorophenyl)piperidine-1-carbonyl]-6-methyl-1H-pyrrolo[2,3-c]pyridin-7-one]
3900 nM	Cn1cc(C(=O)N2CCC(c3cccc(F)c3)CC2)c2cc[nH]c2c1=O [Example 49, 4-[4-(3-fluorophenyl)piperidine-1-carbonyl]-6-methyl-1H-pyrrolo[2,3-c]pyridin-7-one]
7100 nM	CN(C1CCCCC1)C1CCN(C(=O)c2cn(C)c(=O)c3[nH]ccc23)CC1 [Example 52, 4-[4-[cyclohexyl(methyl)amino]piperidine-1-carbonyl]-6-methyl-1H-pyrrolo[2,3-c]pyridin-7-one]
6400 nM	Cn1cc(C(=O)N2CCCCC2)c2cc[nH]c2c1=O [Example 70, 6-methyl-4-(piperidine-1-carbonyl)-1H-pyrrolo[2,3-c]pyridin-7-one]
7000 nM	CCCN1CCC(N(C(=O)c2cn(C)c(=O)c3[nH]ccc23)C2CC2)CC1 [Example 82, N-cyclopropyl-6-methyl-7-oxo-N-(1-propyl-4-piperidyl)-1H-pyrrolo[2,3-c]pyridine-4-carboxamide]
5700 nM	COCCN(C(=O)c1cn(C)c(=O)c2[nH]ccc12)C1CCN(C)CC1 [Example 84]
1700 nM	Cn1cc(C(=O)NCC2CCCOC2)c2cc[nH]c2c1=O (stereo not shown) [Example 100]
850 nM	Cn1cc(C(=O)NCC2CCN(C(=O)OC(C)(C)C)CC2)c2cc[nH]c2c1=O [Example 133]
510 nM	Cn1cc(C(=O)NCC2CCN(C(=O)OC(C)(C)C)C2)c2cc[nH]c2c1=O (stereo not shown) [Example 137]
320 nM	Cc1cnc(N2CCC(NC(=O)c3cn(C)c(=O)c4[nH]ccc34)CC2)nc1 [Example 149, 6-methyl-N-[1-(5-methylpyrimidin-2-yl)-4-piperidyl]-7-oxo-1H-pyrrolo[2,3-c]pyridine-4-carboxamide]
1600 nM	CN(CC1CCN(c2ncccn2)CC1)C(=O)c1cn(C)c(=O)c2[nH]ccc12 [Example 157, N,6-dimethyl-7-oxo-N-[(1-pyrimidin-2-yl-4-piperidyl)methyl]-1H-pyrrolo[2,3-c]pyridine-4-carboxamide]
1600 nM	COCCN1CCC(CN(C)C(=O)c2cn(C)c(=O)c3[nH]ccc23)CC1 [Example 193]
18000 nM	CN(CC1CCN(Cc2cccc(Cl)c2)CC1)C(=O)c1cn(C)c(=O)c2[nH]ccc12 [Example 199]
3600 nM	CN(C(=O)c1cn(C)c(=O)c2[nH]ccc12)C1CCN(CC2CCCC2)CC1 [Example 219]
9900 nM	CN(CC1CCN(CC2CCCO2)CC1)C(=O)c1cn(C)c(=O)c2[nH]ccc12 (stereo not shown) [Example 231]
